pKd, pKi: −log10 of the molar value.
biological target: Endolysin (Enterobacteria phage T4, UniProt P00720, L99A); parameters: species or system Tequatrovirus T4

| SMILES | pKd |
| --- | --- |
| CCc1ccc(C)cc1 | 3.92 |
| CCCc1ccccc1 | 4.74 |
| CCc1cccc(C)c1 | 3.70 |
| CCc1ccccc1C | 3.30 |
| c1ccc2occc2c1 [BENZOFURAN] | 3.95 |
| c1ccc2sccc2c1 [BENZOTHIOPHENE] | 4.13 |
| C1=Cc2ccccc2C1 [INDENE] | 3.71 |
| Cc1cccc(C)c1 [M-XYLENE] | 3.44 |

biological target: Endolysin (Enterobacteria phage T4, UniProt P00720, L99A/M102Q); test: Dissociation constant against T4 lysozyme mutant L99A/M102Q; parameters: species or system Tequatrovirus T4

| SMILES | pKd |
| --- | --- |
| Nc1ccccc1F | 4.00 |
| Oc1cccc(Cl)c1 | 4.25 |
| Cc1cc[nH]c1 | 3.80 |

biological target: T1, Beta-lactamase (Escherichia coli K-12, UniProt P00811); test: Apparent inhibitory constant against beta-lactamase AmpC from Escherichia coli
T1 sequence (P00811 whole entry): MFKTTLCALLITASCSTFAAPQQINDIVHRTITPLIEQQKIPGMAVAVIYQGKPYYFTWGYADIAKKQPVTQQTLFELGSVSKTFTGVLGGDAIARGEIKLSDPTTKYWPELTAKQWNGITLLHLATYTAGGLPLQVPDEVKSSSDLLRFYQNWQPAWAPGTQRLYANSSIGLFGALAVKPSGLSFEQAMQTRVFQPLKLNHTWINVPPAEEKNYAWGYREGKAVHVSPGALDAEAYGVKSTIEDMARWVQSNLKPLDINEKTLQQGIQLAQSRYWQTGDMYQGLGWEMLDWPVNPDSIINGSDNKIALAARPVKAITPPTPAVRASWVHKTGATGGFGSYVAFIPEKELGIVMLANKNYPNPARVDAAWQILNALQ

| pKi | SMILES |
| --- | --- |
| 4.03 | NS(=O)(=O)c1ccc(NS(=O)(=O)c2ccsc2C(=O)O)cc1 |

biological target: T1, Beta-lactamase; test: Inhibitory constant against beta-lactamase AmpC from Escherichia coli

| pKi | SMILES |
| --- | --- |
| 4.59 | O=C(O)c1sccc1S(=O)(=O)Nc1ccc(Cl)cc1 |

From ChEMBL document CHEMBL1139524, “Decoys for docking” (J Med Chem, 2005)
